System: AP4B1-KO SH-SY5Y cells
Assay: Testing of compounds for AP-4 deficiency: ATG9A translocation in AP4B1-KO SH-SY5Y cells
Settings: 24 h, std error in own column
Method: SH-SY5Y cell culture. […] Media changes were done every 2-3 days and drugs were administered 24 h before fixation.
Immunocytochemistry. […] SH-SY5Y cells were fixed using 4% PFA, permeabilized with 0.1% saponin in PBS and blocked in 1% BSA/0.01% saponin (blocking solution) in PBS. Primary antibody (diluted in blocking solution) was added for 1 h at room temperature. […] Plates were then gently washed three times with PBS and protected from light.
High-content imaging and automated image analysis. […] Up to 36 fields were acquired in a 6×6 format (96-well plate) using a 40×S Plan Fluor objective (NA 0.60 m, WB 3.6-2.8 mm). Image analysis was performed using a customized image analysis pipeline in MetaXpress (Molecular Devices): Briefly, cells were identified based on the presence of DAPI signal inside a TUBB3-positive cell body. […] ATG9A fluorescence intensity (F.U.) was measured in both compartments in each cell, and the ATG9A ratio was calculated by dividing the ATG9A fluorescence intensity inside the TGN by the ATG9A fluorescence intensity in the remaining cell body:
Z′-factor robust values and strictly standardized median difference (SSMD) were calculated for each plate and only plates that met the predefined quality metrics of a Z′-factor robust 0.3 and SSMD 3 were included in analyses.

| SMILES | EC50 (z atg9a ratio) |
| --- | --- |
| Cc1cccc2sc(N3CCc4[nH]cnc4C3)nc12 [Compound 17] | 1.185 |
| Oc1cccc2sc(N3CCc4[nH]cnc4C3)nc12 [Compound 10] | 4.418 |

Source: US20260306465A1, “COMPOUNDS FOR TREATING HEREDITARY SPASTIC PARAPLEGIA” (The Children's Medical Center Corporation, priority 2023, published 2026)
